ChEMBL document CHEMBL4334516, “Kinase Chemodiversity from the Arctic: The Breitfussins” (J Med Chem, 2019)

Columns and labels:
[1] = target: T1, Mitogen-activated protein kinase kinase kinase 11 (Homo sapiens, UniProt Q16584); test: Inhibition of MLK3 (unknown origin) assessed as residual enzyme activity at 5 uM by [33P]-ATP filter binding kinase assay relative to control
[2] = target: T2, Mitogen-activated protein kinase kinase kinase 7 (Homo sapiens) (UniProt O43318); test: Inhibition of TAK1 (unknown origin) assessed as residual enzyme activity at 50 uM by [33P]-ATP filter binding kinase assay relative to control
T2 sequence (whole entry): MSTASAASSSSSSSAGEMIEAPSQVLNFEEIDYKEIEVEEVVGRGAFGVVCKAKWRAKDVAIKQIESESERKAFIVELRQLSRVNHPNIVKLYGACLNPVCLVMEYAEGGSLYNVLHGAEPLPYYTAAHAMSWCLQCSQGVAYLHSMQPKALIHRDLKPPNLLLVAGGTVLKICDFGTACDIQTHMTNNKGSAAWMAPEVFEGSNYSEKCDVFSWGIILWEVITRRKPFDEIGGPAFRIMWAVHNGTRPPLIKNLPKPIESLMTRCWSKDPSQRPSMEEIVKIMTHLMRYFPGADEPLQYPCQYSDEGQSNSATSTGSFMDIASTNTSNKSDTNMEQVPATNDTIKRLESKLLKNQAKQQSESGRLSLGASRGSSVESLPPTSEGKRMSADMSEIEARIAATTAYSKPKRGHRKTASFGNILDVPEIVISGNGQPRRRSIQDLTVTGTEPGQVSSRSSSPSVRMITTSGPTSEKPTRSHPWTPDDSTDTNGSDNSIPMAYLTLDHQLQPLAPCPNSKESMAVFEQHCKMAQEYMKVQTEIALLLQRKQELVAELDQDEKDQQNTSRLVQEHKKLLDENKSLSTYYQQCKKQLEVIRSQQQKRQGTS

[3] = target: Serine/threonine-protein kinase 17B (Homo sapiens) (UniProt O94768); test: Binding affinity to wild-type human full length DRAK2 (M1 to C372 residues) expressed in bacterial expression system assessed as residual binding level at 10 uM by active-site directed competition binding assay based Kinomescan method relative to control
[4] = target: T3, Receptor-interacting serine/threonine-protein kinase 2 (Homo sapiens, UniProt O43353); test: Inhibition of RIPK2 (unknown origin) assessed as residual enzyme activity at 50 uM by [33P]-ATP filter binding kinase assay relative to control
[5] = target: Serine/threonine-protein kinase pim-1 (Homo sapiens, UniProt P11309); test: Inhibition of PIM1 (unknown origin) assessed as residual enzyme activity at 50 uM by [33P]-ATP filter binding kinase assay relative to control
[6] = target: Receptor-type tyrosine-protein kinase FLT3 (Homo sapiens, UniProt P36888, N841I); test: Binding affinity to human partial length FLT3 N841I mutant (V592 to Y969 residues) expressed in bacterial expression system by active-site directed competition binding assay based Kinomescan method
[7] = target: Interleukin-1 receptor-associated kinase 3 (Homo sapiens, UniProt Q9Y616); test: Binding affinity to wild-type human partial length IRAK3 (V147 to E596 residues) expressed in bacterial expression system by active-site directed competition binding assay based Kinomescan method
Aurora kinase B = Aurora kinase B (Homo sapiens, UniProt Q96GD4); test: Binding affinity to wild-type human partial length AURKB (D25 to A303 residues) expressed in mammalian expression system assessed as residual binding level at 10 uM by active-site directed competition binding assay based Kinomescan method relative to control
[8] = target: Non-receptor tyrosine-protein kinase TYK2 (Homo sapiens, UniProt P29597); test: Binding affinity to wild-type human partial length TYK2 JH2 domain-pseudokinase expressed in mammalian expression system by active-site directed competition binding assay based Kinomescan method
[9] = target: T3, Receptor-interacting serine/threonine-protein kinase 2; test: Binding affinity to wild-type human partial length RIPK2 (M1 to K310 residues) expressed in bacterial expression system assessed as residual binding level at 10 uM by active-site directed competition binding assay based Kinomescan method relative to control
MDA-MB-231 = test: Cytotoxicity in human MDA-MB-231 cells assessed as reduction in cell viability incubated for 72 hrs by SRB assay; conditions: MDA-MB-231, 72 h
[10] = Unbound fraction in human plasma at 5 uM incubated for 6 hrs at 37 degC by LC-MS analysis based equilibrium dialysis; type: ADME, cell-free
MDA-MB-468 = test: Cytotoxicity in human MDA-MB-468 cells assessed as reduction in cell viability incubated for 72 hrs by SRB assay; conditions: MDA-MB-468, 72 h
[11] = Toxicity in zebrafish embryos assessed as induction of tail degeneration by measuring unaffected embryos level at 1.4 uM after 72 hrs (reference value: 100%); type: tissue-based, Danio rerio; conditions: in vivo
[12] = Toxicity in zebrafish embryos assessed as induction of scoliosis by measuring unaffected embryos level at 14 uM after 72 hrs (reference value: 100%); set-up: species or system Danio rerio; conditions: in vivo
[13] = Permeability assessed as drug flux at 500 uM incubated for 20 hrs by PAMPA; type: ADME
[14] = target: Mitogen-activated protein kinase kinase kinase 9 (Homo sapiens, UniProt P80192); test: Inhibition of MLK1 (unknown origin) assessed as residual enzyme activity at 50 uM by [33P]-ATP filter binding kinase assay relative to control
[15] = Toxicity in zebrafish embryos at 0.1 to 1396 uM after 72 hrs; set-up: species or system Danio rerio; conditions: in vivo, read-out: LD50
[16] = Toxicity in zebrafish embryos assessed as survival at 0.1 uM after 72 hrs (reference value: 95%); set-up: species or system Danio rerio; conditions: in vivo
[17] = target: Serine/threonine-protein kinase 36 (Homo sapiens, UniProt Q9NRP7); test: Binding affinity to wild-type human partial length STK36 (M1 to T271 residues) expressed in bacterial expression system by active-site directed competition binding assay based Kinomescan method
[18] = target: T1, Mitogen-activated protein kinase kinase kinase 11; test: Inhibition of MLK3 (unknown origin) assessed as residual enzyme activity at 1 uM by [33P]-ATP filter binding kinase assay relative to control

T1 sequence (Q16584 whole entry, looked up): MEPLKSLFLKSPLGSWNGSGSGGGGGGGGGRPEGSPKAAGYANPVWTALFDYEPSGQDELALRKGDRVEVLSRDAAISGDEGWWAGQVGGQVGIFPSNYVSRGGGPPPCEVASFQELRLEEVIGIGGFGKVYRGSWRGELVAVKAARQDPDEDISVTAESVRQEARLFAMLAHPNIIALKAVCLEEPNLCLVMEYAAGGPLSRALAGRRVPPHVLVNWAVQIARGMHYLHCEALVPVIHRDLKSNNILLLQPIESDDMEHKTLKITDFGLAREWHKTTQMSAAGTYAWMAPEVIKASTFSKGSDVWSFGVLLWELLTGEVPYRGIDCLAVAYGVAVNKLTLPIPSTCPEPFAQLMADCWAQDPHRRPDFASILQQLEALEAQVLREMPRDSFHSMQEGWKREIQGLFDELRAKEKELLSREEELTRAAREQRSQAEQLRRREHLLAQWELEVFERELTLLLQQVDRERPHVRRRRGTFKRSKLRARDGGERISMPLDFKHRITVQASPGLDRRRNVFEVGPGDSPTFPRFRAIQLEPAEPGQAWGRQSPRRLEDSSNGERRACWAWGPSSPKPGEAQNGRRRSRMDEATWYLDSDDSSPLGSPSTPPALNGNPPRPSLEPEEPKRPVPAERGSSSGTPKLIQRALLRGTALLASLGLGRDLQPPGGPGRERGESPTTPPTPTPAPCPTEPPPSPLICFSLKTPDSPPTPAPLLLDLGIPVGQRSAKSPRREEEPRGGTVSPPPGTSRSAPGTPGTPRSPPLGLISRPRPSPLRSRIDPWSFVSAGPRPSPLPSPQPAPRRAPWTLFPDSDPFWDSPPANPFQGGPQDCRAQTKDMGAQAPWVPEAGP
T3 sequence (O43353 whole entry): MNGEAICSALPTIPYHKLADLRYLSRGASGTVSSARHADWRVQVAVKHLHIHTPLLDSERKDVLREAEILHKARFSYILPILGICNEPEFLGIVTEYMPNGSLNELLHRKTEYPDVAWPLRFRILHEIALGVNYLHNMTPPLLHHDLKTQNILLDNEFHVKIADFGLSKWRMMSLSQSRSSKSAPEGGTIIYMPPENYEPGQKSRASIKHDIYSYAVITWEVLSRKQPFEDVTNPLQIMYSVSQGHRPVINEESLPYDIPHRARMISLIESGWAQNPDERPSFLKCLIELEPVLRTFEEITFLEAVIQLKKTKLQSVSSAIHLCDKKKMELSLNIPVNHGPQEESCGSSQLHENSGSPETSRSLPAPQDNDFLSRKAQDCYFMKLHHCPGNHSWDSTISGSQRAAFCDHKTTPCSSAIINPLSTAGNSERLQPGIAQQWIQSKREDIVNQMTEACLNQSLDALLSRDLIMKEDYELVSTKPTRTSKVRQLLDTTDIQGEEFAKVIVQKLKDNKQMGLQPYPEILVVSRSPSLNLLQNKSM
Chain of Aurora kinase B (Q96GD4 whole entry, the tested form may be a part): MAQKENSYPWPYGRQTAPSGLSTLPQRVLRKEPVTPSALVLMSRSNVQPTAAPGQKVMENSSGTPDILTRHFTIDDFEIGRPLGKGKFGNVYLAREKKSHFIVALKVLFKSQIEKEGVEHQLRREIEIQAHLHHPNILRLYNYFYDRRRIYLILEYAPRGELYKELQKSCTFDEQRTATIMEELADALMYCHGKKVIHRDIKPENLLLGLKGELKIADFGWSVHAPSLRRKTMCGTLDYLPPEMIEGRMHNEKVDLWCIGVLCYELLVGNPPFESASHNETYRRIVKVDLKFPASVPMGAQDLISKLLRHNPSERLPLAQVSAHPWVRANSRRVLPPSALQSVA
Chain of Mitogen-activated protein kinase kinase kinase 9 (P80192 whole entry, looked up): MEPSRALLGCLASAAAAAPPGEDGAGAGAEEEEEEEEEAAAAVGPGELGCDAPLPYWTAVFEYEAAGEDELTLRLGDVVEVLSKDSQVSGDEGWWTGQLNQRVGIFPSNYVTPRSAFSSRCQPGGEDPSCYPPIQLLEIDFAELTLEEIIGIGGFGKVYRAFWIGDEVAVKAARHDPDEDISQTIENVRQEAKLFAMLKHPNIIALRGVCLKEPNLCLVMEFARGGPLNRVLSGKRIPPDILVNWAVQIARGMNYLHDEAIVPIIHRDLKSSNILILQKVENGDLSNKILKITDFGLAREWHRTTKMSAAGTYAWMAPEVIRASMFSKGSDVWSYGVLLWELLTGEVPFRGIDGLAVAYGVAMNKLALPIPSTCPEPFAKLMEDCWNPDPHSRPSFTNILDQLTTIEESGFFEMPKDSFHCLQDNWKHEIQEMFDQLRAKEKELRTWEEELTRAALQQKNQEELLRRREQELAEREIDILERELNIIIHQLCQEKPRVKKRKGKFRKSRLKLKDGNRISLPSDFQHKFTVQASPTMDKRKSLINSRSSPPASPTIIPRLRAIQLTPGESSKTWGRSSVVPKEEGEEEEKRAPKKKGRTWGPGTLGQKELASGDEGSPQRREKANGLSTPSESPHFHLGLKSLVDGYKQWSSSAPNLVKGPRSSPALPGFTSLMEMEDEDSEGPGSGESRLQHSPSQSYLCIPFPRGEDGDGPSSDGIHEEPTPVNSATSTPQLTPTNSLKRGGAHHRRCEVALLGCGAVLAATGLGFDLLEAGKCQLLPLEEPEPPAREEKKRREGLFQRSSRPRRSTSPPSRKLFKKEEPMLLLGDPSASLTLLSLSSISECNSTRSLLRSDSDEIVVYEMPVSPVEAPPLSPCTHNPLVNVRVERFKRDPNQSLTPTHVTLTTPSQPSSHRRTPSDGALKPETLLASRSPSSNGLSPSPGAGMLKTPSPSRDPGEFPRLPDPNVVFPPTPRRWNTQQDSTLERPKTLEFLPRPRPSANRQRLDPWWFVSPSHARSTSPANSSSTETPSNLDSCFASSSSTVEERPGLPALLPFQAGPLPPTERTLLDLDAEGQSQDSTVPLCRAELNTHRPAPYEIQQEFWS
Chain of Interleukin-1 receptor-associated kinase 3 (Q9Y616 whole entry, the tested form may be a part): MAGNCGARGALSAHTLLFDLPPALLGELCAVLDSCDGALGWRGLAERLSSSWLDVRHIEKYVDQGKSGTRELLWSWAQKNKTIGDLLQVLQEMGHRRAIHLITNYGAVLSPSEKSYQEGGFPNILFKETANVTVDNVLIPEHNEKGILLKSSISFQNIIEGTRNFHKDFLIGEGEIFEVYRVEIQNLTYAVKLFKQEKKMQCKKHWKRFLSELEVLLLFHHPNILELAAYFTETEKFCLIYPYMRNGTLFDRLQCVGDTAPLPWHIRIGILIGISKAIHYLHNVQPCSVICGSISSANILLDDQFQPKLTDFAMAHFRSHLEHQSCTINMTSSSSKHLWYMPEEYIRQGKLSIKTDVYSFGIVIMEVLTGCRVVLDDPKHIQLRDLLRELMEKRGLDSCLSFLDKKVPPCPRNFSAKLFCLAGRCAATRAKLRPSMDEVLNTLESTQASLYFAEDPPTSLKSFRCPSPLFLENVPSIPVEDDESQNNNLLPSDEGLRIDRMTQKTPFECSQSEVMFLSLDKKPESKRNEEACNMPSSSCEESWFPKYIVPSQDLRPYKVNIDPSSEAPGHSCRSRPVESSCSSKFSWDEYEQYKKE
Chain of Serine/threonine-protein kinase 17B (Homo sapiens) (O94768 whole entry, the tested form may be a part): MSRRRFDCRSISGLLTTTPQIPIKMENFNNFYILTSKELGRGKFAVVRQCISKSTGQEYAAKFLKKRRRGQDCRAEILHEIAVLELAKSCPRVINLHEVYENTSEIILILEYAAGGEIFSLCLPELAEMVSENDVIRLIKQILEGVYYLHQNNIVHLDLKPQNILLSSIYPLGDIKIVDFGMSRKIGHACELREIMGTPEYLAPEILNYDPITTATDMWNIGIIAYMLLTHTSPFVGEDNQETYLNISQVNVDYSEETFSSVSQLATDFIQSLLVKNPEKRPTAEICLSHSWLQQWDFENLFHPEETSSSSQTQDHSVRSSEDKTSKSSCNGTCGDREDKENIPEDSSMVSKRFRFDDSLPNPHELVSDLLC
Chain of Serine/threonine-protein kinase pim-1 (P11309 whole entry, looked up, the tested form may be a part): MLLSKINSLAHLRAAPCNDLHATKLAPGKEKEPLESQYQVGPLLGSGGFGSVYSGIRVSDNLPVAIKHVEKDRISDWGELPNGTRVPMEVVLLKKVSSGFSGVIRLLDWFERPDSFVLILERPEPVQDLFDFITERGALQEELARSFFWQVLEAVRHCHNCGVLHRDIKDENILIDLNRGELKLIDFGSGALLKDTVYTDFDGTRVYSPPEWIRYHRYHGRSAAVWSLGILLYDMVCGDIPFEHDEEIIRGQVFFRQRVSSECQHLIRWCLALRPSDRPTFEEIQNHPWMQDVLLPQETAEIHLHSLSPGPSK

**Q.** Which Activity [1] does the source give for `COc1cc(Br)cc2[nH]cc(-c3cnc(-c4ccc[nH]4)o3)c12` here?
**A.** 7%

**Q.** Which Activity [2] does the source give for `COc1cc2c(-c3cnc(-c4ccc[nH]4)o3)c[nH]c2cc1Br` here?
**A.** 7%

**Q.** What about the Activity [3] of the same molecule?
**A.** 1.2%

**Q.** And the Activity [4]?
**A.** 10%

**Q.** And the Activity [5]?
**A.** 2%

**Q.** What about the Kd [6] of the same molecule?
**A.** 8900 nM

**Q.** What about the Kd [7] of the same molecule?
**A.** 1700 nM

**Q.** And the Activity (Aurora kinase B)?
**A.** 50%

**Q.** And the Kd [8]?
**A.** 1800 nM

**Q.** And the Activity [9]?
**A.** 57%

**Q.** What about the IC50 (MDA-MB-231) of the same molecule?
**A.** > 30000 nM

**Q.** What about the Fu [10] of the same molecule?
**A.** 0.3%

**Q.** What about the IC50 (MDA-MB-468) of the same molecule?
**A.** 340 nM

**Q.** What about the Activity [11] of the same molecule?
**A.** 100%

**Q.** What about the Activity [12] of the same molecule?
**A.** 0%

**Q.** What about the permeability [13] of the same molecule?
**A.** 23%

**Q.** What about the Activity [14] of the same molecule?
**A.** 5%

**Q.** What about the LC50 at 72 h [15] of the same molecule?
**A.** 1400 nM

**Q.** And the survival at 72 h, 0.1 µM [16]?
**A.** 100%

**Q.** And the Kd [17]?
**A.** 2700 nM

**Q.** And the Activity [18]?
**A.** 20%
